This is an account of results in patent US20250338857A1, “USE OF INTERFERING RNAS DIRECTED AGAINST THE CHOLINERGIC SYSTEM FOR CONTROLLING INSECT PESTS” (priority 2022, published 2025).

In brackets after ≈: the same amount, converted by molar mass.

For assay [1], the system named is aphid larvae. Put plainly: Imidacloprid concentration-effect mortality curve in aphid larvae (LC50). The assay is classed as in vivo. The note with it: Acyrthosiphon pisum, artificial nutrition. On the procedure: Mortality tests were performed using an artificial nutrition system comprising a PVC tube closed by a Parafilm® at each end, in which 5 adult aphids or 20 larvae were deposited. At one of the ends of the artificial nutrition “cell”, 200 μL of nutrient solution comprising the solution to be tested (insecticide, dsRNA) were deposited on the Parafilm then covered with a 2nd Parafilm to allow the aphids to suck the solution for feeding by piercing the Parafilm with their rostrum. The cells were placed at 20° C. in a chamber with a photoperiod of 16 h. To determine the concentration of imidacloprid leading to 50% mortality (LC50) in the aphid larvae, a concentration-effect curve was plotted at 48 h and 72 h from a range of imidacloprid concentrations from 10^−6 to 10 μg/mL.
The mortality curves were obtained with GraphPad Prism software in the form of a non-linear regression and adjusted with the Hill equation,
[formula] • where Y is the percent mortality observed at the concentration value X, m and M are respectively the minimum and maximum values of the curve, nH is the Hill coefficient and LC50 is the concentration of imidacloprid causing 50% mortality. The results are expressed as a mean±S.E.M. Type of Effect of the dsRNAs

For assay [2], the system named is cockroach Periplaneta americana. Put plainly: Mortality after acute imidacloprid intoxication in cockroaches exposed to a sublethal dose for 30 days. The note with it: 0.025 μg/cockroach/day for 30 days, re-exposure 96 h. Format: in vivo.

As for `O=[N+]([O-])NC1=NCCN1Cc1ccc(Cl)nc1` [imidacloprid], the values for the LC50 in assay [1] (48 h) and in assay [1] (72 h) were 8 ng/mL (≈ 0.0313 µM) and 4 ng/mL (≈ 0.0156 µM), respectively. Further, the “effect of sublethal intoxication for 30 days on sensitivity of cockroaches to acute intoxication” value in assay [2] is reported as “loss of sensitivity”.
